Measurements from paper PMC9869995, “Discovery of benzochromene derivatives first example with dual cytotoxic activity against the resistant cancer cell MCF-7/ADR and inhibitory effect of the P-glycoprotein expression levels” (Journal of Enzyme Inhibition and Medicinal Chemistry, 2023).

Key:
[1] = test system: P-gp; assay: P-gp content in MCF-7/ADR cell lysate by ELISA; format: cell-based, human; conditions: MCF-7/ADR lysate; for %Reduction of P-gp expression / IC50: 48 h; for IC50 at 48 h: human, MCF-7/ADR cells (cell lysate)
Description: P-gp pumps multiple types of drugs out of the cell, using energy generated from adenosine triphosphate (ATP), and confers MDR on cancer cells. It is one of the noteworthy problems in malignant tumour clinical therapeutics. […].
The content of P-gp in the MCF-7/ADR cell lysates after incubation with varying conc. (12.5–100 µM) of tested compounds 4b, 4c, 4d, 4q, and 4w following exposure for 48 h. was determined using commercial human P-gp ELISA Kit (MBS2506188, MyBioSource Inc., San Diego, CA). Absorption was recorded at 450 nm with a Spectramax Gemini fluorescence microplate reader (Molecular Devices, Sunnyvale, CA).

[2] = test system: MCF-7; assay: MTT cell viability assay, MCF-7; format: cell-based; conditions: Homo sapiens, MCF7, 24 h incubation, mean ± standard error
Text: (§1) According to previous reports regarding the cytotoxic features of a numerous array of benzochromene scaffolds, compounds 4a − z have been elected to explore their cytotoxic ability against three tumour cell lines, including HCT-116 (colon cancer), MCF-7 (breast cancer), and HepG-2 (hepatocellular cancer), and employing the 3–(4,5-dimethylthiazol-2-yl)-2,5-diphenyl tetrazolium bromide (MTT) colorimetric assay as described in literature. Judges choice of such cell lines has been stimulated by the acknowledged antitumor performance of a substantial number of 1H-benzo[f]chromene and 4H-benzo[h]chromene molecules towards the asserted cell lines. […] Moreover, benzochromene derivatives with highly cytotoxic behaviour, 4a − d, 4g, 4i, 4k, 4n, 4q, 4 u, and 4w, are subjected to further inspection against ADR-resistant human breast cancer cells (MCF-7/ADR) and the two normal cell lines, HFL-1 and human diploid fibroblasts (WI-38). […] Also, the results are illustrated in Table 4.
(§2) The tumour cell lines MCF-7, HepG-2, and […] were obtained from the American Type Culture Collection (ATCC, Rockville, MD). The cells were grown on RPMI-1640 medium supplemented with 10% inactivated foetal calf serum and 50 µg/mL gentamycin. The cells were maintained at 37 °C in a humidified atmosphere with 5% CO2 and were subculture two to three times a week.
(§3) The cytotoxic activity was appraised, using the 3–(4,5-dimethylthiazol-2-yl)-2,5-diphenyl-tetrazolium bromide (MTT) colorimetric assay, as reported previously[57] and ELISA assay for MCF-7/ADR[75].

[3] = test system: WI-38; assay: Cytotoxicity against normal cell line WI-38; format: cell-based; conditions: Homo sapiens, 24 h, mean ± standard error
Text: as §1, §3

[4] = test system: HFL-1; assay: Cytotoxicity against normal cell line HFL-1; format: cell-based; conditions: Homo sapiens, HFL1, 24 h, mean ± standard error
Text: as §1, §3

[5] = molecular target: T1, P-gp (Homo sapiens, UniProt P08183); assay: Rhodamine 123 accumulation assay in MCF-7/ADR cells; format: cell-based; conditions: 4 h compound, then 5.25 μM Rho123 30 min
T1 construct: endogenous in cells; host or cells: MCF-7/ADR (Adriamycin-resistant human breast cancer cells)
Description: Furthermore, the reversion of P-gp mediated multidrug resistance may be achieved by down-regulation of P-gp expression and or inhibition of P-gp efflux function.
Briefly, resistant cancer cells were harvested, washed twice, and counted. […] of each well was measured using Spectramax Gemini fluorescence microplate reader (Molecular Devices, Sunnyvale, CA). The total content of Rhodamine in each sample was determined by comparison with a Rhodamine standard curve.

[6] = test system: HepG-2; assay: MTT cell viability assay, HepG-2; format: cell-based; conditions: Homo sapiens, HepG2, 24 h incubation, mean ± standard error
Text: as §1, §2, §3

[7] = test system: HCT-116; assay: MTT cell viability assay, HCT-116; format: cell-based; conditions: Homo sapiens, 24 h incubation, mean ± standard error
Text: as §1, §3

[8] = test system: MCF-7/ADR; assay: Cytotoxicity against ADR-resistant breast cancer cells; format: cell-based, human; conditions: 24 h exposure, mean ± standard error
Text: as §1, §3

[9] = test system: MCF-7/ADR cells; assay: Annexin V-FITC/PI apoptosis assay; format: cell-based, human; conditions: IC50 value, 24 h, untreated cells 2%
Text: Several lines of evidence indicate that many anticancer compounds exerted their effects by blocking the cell cycle progression, by inducing apoptosis, or the combined effect of both[67]. Also, P-gp inhibits apoptosis by preventing the release of cytochrome c which is mediated by the intrinsic mitochondrial pathway. To further assess the pivotal relation of the newly synthesised MCF-7/ADR anticancer compounds and apoptosis, phosphatidylserine (PS) translocation to the cell membrane as a marker for apoptosis was measured by the means of the Annexin V/PI double staining flow cytometric assay.
Apoptosis assay was performed with an Annexin V-FITC/PI double staining apoptosis detection kit (K101, Biovison, Milpitas, CA) using a flow cytometer. MCF-7/ADR cancer cells treated with different newly synthesised compounds (IC50 value) were harvested by trypsinization, washed twice with 4 °C PBS, and re-suspended in binding buffer. Annexin V-FITC and PI solutions were then added to stain the cells before analysis by flow cytometry A minimum of 10,000 cells per sample were acquired. Annexin V-FITC binding (FL1) and PI (FL2) were analysed using Cell Quest Pro software (BD Biosciences).

[10] = Homo sapiens, NCI/ADR-RES, 24 h

T1 sequence (P08183 whole entry): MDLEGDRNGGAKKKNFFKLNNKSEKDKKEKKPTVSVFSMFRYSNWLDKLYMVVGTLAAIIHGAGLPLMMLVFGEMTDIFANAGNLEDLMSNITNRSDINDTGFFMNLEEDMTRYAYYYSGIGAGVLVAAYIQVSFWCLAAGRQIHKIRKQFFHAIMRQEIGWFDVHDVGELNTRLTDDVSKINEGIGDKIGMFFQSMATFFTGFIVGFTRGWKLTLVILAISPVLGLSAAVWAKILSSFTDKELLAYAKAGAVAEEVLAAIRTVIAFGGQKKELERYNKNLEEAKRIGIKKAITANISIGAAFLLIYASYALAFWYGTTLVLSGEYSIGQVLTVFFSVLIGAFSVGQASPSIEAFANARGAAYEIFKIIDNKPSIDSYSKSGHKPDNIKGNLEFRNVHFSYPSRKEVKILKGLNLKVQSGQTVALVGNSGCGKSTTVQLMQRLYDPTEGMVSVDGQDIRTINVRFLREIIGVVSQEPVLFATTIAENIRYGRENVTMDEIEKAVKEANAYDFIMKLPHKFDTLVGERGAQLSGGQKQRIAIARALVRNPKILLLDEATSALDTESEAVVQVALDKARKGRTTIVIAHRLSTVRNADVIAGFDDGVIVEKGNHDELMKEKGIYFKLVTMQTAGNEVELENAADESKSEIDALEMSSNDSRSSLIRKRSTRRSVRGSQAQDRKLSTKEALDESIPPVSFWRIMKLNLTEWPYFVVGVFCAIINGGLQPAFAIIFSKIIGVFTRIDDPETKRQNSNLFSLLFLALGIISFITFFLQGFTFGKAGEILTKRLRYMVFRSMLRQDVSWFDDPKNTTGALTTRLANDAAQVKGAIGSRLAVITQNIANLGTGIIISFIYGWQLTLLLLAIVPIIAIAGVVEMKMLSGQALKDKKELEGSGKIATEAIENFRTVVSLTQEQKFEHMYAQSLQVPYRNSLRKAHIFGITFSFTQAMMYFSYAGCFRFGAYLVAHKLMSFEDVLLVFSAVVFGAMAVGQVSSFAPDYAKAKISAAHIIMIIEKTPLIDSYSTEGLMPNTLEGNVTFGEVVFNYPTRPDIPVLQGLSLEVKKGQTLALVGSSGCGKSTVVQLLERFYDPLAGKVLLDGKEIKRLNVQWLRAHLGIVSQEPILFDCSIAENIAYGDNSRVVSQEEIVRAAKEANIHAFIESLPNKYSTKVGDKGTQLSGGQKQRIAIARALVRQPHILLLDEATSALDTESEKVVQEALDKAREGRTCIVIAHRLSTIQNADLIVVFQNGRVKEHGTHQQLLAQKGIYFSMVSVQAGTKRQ

Row | SMILES | IC50 [1] | IC50 at 48 h [1] | IC50 [2] | IC50 [5] | melting point | IC50 [7] | %Reduction of P-gp expression ([1]; Conc. 12.5 µM) | %Reduction of P-gp expression ([1]; Conc. 25 µM) | %Reduction of P-gp expression ([1]; Conc. 50 µM) | %Reduction of P-gp expression ([1]; Conc. 100 µM) | IC50 [3] | IC50 [4] | IC50 [6] | IC50 [8] | IC50 [8, 10] | total apoptosis [9]
1 | COc1ccc2ccc3c(c2c1)C(c1ccc(F)cc1F)C(C#N)=C(N)O3 (centres unmarked) [4k, 3-Amino-1–(2,4-difluorophenyl)-9-methoxy-1H-benzo[f]chromene-2-carbonitrile] |  | 61.4 µM | 3 ± 0.3 µM | 57.8 µM | 255 to 256 °C | 4.1 ± 0.2 µM | 12% | 28% | 45% | 70% | 47.3 ± 0.2 µM | 59.6 ± 0.1 µM | 8.2 ± 0.6 µM | 11.5 ± 0.6 µM | 10.9 to 15.5 µM | 
2 | COc1ccc2ccc3c(c2c1)C(c1ccc(OC)c(OC)c1)C(C#N)=C(N)O3 (centres unmarked) [4w, 3-Amino-1–(3,4-dimethoxyphenyl)-9-methoxy-1H-benzo[f]chromene-2-carbonitrile] | 32.4 µM | 18.7 to 34.6 µM | 2.6 ± 0.5 µM | 25.6 µM | 253 to 255 °C | 6.2 ± 0.3 µM | 24% | 36% | 68% | 79% | 52.9 ± 0.3 µM | 47.1 ± 0.2 µM | 52.3 ± 0.4 µM | 11.5 ± 0.6 µM | 10.9 to 15.5 µM | 
3 | COc1cccc2c1C(=O)c1c(O)c3c(c(O)c1C2=O)C[C@@](O)(C(=O)CO)C[C@@H]3O[C@H]1C[C@H](N)[C@H](O)[C@H](C)O1 [Doxorubicin, reference compound] |  | 50.9 µM | 0.8 ± 0.01 µM |  |  | 0.9 ± 0.02 µM |  |  |  |  |  |  | 1.7 ± 0.4 µM |  |  | 30%

Continued, in another order:

Row | IC50 [1] | IC50 at 48 h [1] | IC50 [2] | IC50 [5] | melting point | IC50 [7] | SMILES | %Reduction of P-gp expression ([1]; Conc. 12.5 µM) | %Reduction of P-gp expression ([1]; Conc. 25 µM) | %Reduction of P-gp expression ([1]; Conc. 50 µM) | %Reduction of P-gp expression ([1]; Conc. 100 µM) | IC50 [3] | IC50 [4] | IC50 [6] | IC50 [8] | IC50 [8, 10] | total apoptosis [9]
4 | 26.7 µM | 18.7 to 34.6 µM | 11.3 ± 0.1 µM | 20.5 µM | 266 to 267 °C | 2.5 ± 0.2 µM | COc1ccc2ccc3c(c2c1)C(c1ccccc1Cl)C(C#N)=C(N)O3 (centres unmarked) [4b, 3-Amino-1–(2-chlorophenyl)-9-methoxy-1H-benzo[f]chromene-2-carbonitrile] | 30% | 42% | 72% | 90% | 66.7 ± 0.2 µM | 71.9 ± 0.1 µM | 10.7 ± 0.5 µM | 13.3 ± 0.5 µM | 10.9 to 15.5 µM | 
5 | 28.4 µM | 18.7 to 34.6 µM | 8.5 ± 0.6 µM | 23 µM | 262 to 263 °C | 9.9 ± 0.1 µM | COc1ccc2ccc3c(c2c1)C(c1cccc(Cl)c1)C(C#N)=C(N)O3 (centres unmarked) [4c, 3-Amino-1–(3-chlorophenyl)-9-methoxy-1H-benzo[f]chromene-2-carbonitrile] | 26% | 40% | 70% | 84% | 61.5 ± 1.2 µM | 59.5 ± 1.1 µM | 11 ± 0.2 µM | 10.9 ± 0.2 µM | 10.9 to 15.5 µM | 
6 |  | 13.5 µM | 0.6 ± 0.2 µM | 10.6 µM | 257 to 258 °C | 1.9 ± 0.4 µM | COc1ccc2ccc3c(c2c1)C(c1ccc(Cl)cc1)C(C#N)=C(N)O3 (centres unmarked) [4d, 3-Amino-1–(4-chlorophenyl)-9-methoxy-1H-benzo[f]chromene-2-carbonitrile] | 45% | 60% | 81% | 91% | 83 ± 1.1 µM | 77.1 ± 1.1 µM | 7.2 ± 0.1 µM | 12.5 ± 0.3 µM | 10.9 to 15.5 µM | 
7 |  | 45.3 µM | 2.3 ± 0.1 µM | 39.1 µM | 255 to 256 °C | 1.3 ± 0.1 µM | COc1ccc2ccc3c(c2c1)C(c1ccc(Cl)c(Cl)c1)C(C#N)=C(N)O3 (centres unmarked) [4q, 3-Amino-1–(3,4-dichlorophenyl)-9-methoxy-1H-benzo[f]chromene-2-carbonitrile] | 19% | 32% | 51% | 76% | 72.8 ± 0.4 µM | 75.8 ± 0.2 µM | 1.5 ± 0.1 µM | 13.4 ± 0.4 µM | 10.9 to 15.5 µM | 
